Assay [1] can be described thus: Binding affinity to 5'-ATGACTCAT-3' AP-1 dsDNA (unknown origin) by isothermal titration calorimetry.
A short description of assay [2]: Binding affinity to 5'-ATGACGTCAT-3' ATF/CREB dsDNA (unknown origin) by isothermal titration calorimetry.
Assay [3] can be described thus: Binding affinity to 5'-GCGAGCACAGCTTTTTGCTGTGCTCGC-3' dsDNA (unknown origin) by tryptophan fluorescence spectroscopic analysis.
Assay [4] in a line: Binding affinity to 5'-GCGAGCACAGCTTTTTGCTGTGCTCGC-3' dsDNA (unknown origin) by ethidium bromide displacement assay.
A short description of assay [5]: Binding affinity to 5'-GCGAGTAGAGCTTTTTGCTCTACTCGC-3' dsDNA (unknown origin) by tryptophan fluorescence spectroscopic analysis.
Assay [6] is described as follows: Binding affinity to 5'-GCGAGTAGAGCTTTTTGCTCTACTCGC-3' dsDNA (unknown origin) by ethidium bromide displacement assay.

Activity calls are given as the source filed them. The rule behind the calls is not given here. Positions of bridges follow the written chain, without caps; N, C: chain ends. Non-standard residues stand in square brackets, D forms with d. Residues, ends and D or L forms follow the SMILES beside them. Chains are numbered I, II in the order given. Orn = NCCC[C@H](N)C(=O)O

Take `CC(=O)N[C@@H](CC(=O)O)C(=O)N1CCC[C@H]1C(=O)N[C@@H](C)C(=O)N[C@@H](C)C(=O)N[C@@H](CC(C)C)C(=O)N[C@@H](CCCCN)C(=O)N[C@@H](CCCNC(=N)N)C(=O)N[C@@H](C)C(=O)N[C@@H](CCCNC(=N)N)C(=O)N[C@@H](CC(N)=O)C(=O)N[C@H](C(=O)N[C@@H](CCC(=O)O)C(=O)N[C@@H](C)C(=O)N[C@@H](C)C(=O)N[C@@H](CCCNC(=N)N)C(=O)N[C@@H](CCCNC(=N)N)C(=O)N[C@@H](CO)C(=O)N[C@@H](CCCNC(=N)N)C(=O)N[C@@H](C)C(=O)N[C@@H](CCCNC(=N)N)C(=O)N[C@@H](CCCCN)C(=O)N[C@@H](CC(C)C)C(=O)N[C@@H](CCC(N)=O)C(=O)N[C@@H](CCCNC(=N)N)C(=O)N[C@@H](CC(C)C)C(=O)N[C@@H](CCCCN)C(=O)N[C@@H](CCC(N)=O)C(N)=O)[C@@H](C)O` (Ac-DPAALKRARNTEAARRSRARKLQRLKQ-NH2): the Kd in assay [1] and in assay [2] was 20 µM each time.
As to `CC(C)C[C@@H]1NC(=O)[C@H](CC(N)=O)NC(=O)[C@H](Cc2ccccc2)NC(=O)[C@H](CCC(N)=O)NC(=O)[C@H](CCCCN)NC(=O)[C@@H](N)CCCNC(=O)[C@H](Cc2c[nH]c3ccccc23)NC(=O)[C@H](CCCNC(=N)N)NC(=O)[C@H](CC(C)C)NC(=O)[C@H](CC(N)=O)NC(=O)[C@H](Cc2ccccc2)NC(=O)[C@H](CCC(N)=O)NC(=O)[C@H](CCCCN)NC(=O)[C@@H](N)CCCNC(=O)[C@H](Cc2c[nH]c3ccccc23)NC(=O)[C@H](CCCNC(=N)N)NC1=O` (I: H-[Orn]KQFNLRW / II: H-[Orn]KQFNLRW; amide I:1-II:C, I:C-II:1), the outcome in assay [3], in assay [4] and in assay [5] was Active. Moreover, binding in assay [6] was characterised by a dissociation constant (Kd) of 2.1 µM.

The record behind these values is ChEMBL document CHEMBL3774307, “Synthesis, Characterization, and DNA Binding Profile of a Macrocyclic β-Sheet Analogue of ARC Protein” (ACS Med Chem Lett, 2015).
